# Test results from patent EP0467365A2, “Use of a 5-hydroxytryptamine-3(5-HT3) receptor antagonist for the preparation of a pharmaceutical composition for treating urinary incontinence” (E.R. SQUIBB & SONS, INC., priority 1990, dated 1992).
# Entries after “also recorded” stand apart in the source; their conditions may differ. Counter-ions that a name gives are not always drawn. Like-named read-outs stand apart in the source and are kept apart here.
# Legend:
# Format in all cases: cell-based
# rabbit bladder strips = experiment: 5-HT-induced contraction of rabbit bladder (detrusor) strips, organ bath tension recording; conditions: for antagonism of the 5-HT-induced contraction / pA2: 30 minutes exposure; for antagonism of the 5-HT-induced contraction: BRL 43694 5 x 10^-11 to 2 x 10^-10M, ICS 205930 5 x 10^-12 to 1 x 10^-10M, MDL 72222 5 x 10^-10 to 5 x 10^-9M; for pA2: antagonism of 5-HT-induced contraction, rabbit detrusor strips, Schild plot, mean ± s.e.mean; for atropine and α,β-methylene ATP-resistant component of 5-HT-induced contraction: bladder strips, in presence of atropine and α,β-methylene ATP; for effect on the contractile response to 5-HT: ketanserine 10^-7 to 10^-6M, methysergide and metitepine 10^-8 to 10^-7M, anterior detrusor of female rabbits; for inhibition of the 5-HT contractions: atropine 10^-7M, α,β-methylene ATP 10^-6M
# rabbit bladder = experiment: Contractile response of rabbit bladder strips to electrical field stimulation of intrinsic nerves; conditions: for effect on the response to field stimulation: α,β-methylene ATP dose-dependent, all frequencies
# urethra = experiment: 5-HT-induced contraction of rabbit urethra strips, organ bath tension recording; conditions: 30-second application, 10^-6 to 10^-3M
molecule,measurement,setting,value
"CN1C2CCCC1CC(NC(=O)c1nn(C)c3ccccc13)C2 (stereo not drawn) [BRL 43694, [endo]N-(9-methyl-9-azabicyclo-[3,3,1]-non-3-yl)-1-methyl-1H-indazole-3-carboxamide hydrochloride]",antagonism of the 5-HT-induced contraction,rabbit bladder strips; hydrochloride,strongly and competitively antagonized; also recorded: dose-dependent inhibition
same,antagonism of the 5-HT-induced contraction,"rabbit bladder strips; listed as BRL 43695, hydrochloride",effective at blocking
same,pA2,rabbit bladder strips,10.5 ± 0.01
same,"atropine and α,β-methylene ATP-resistant component of 5-HT-induced contraction",rabbit bladder strips,not abolished
"CC[C@@H](CO)NC(=O)[C@@H]1C=C2c3cccc4c3c(cn4C)C[C@H]2N(C)C1 [methysergide, Methysergide bimaleate]","atropine and α,β-methylene ATP-resistant component of 5-HT-induced contraction",rabbit bladder strips,not abolished
same,effect on the contractile response to 5-HT,rabbit bladder strips,no significant effect
"CN1[C@@H]2CC[C@H]1C[C@@H](OC(=O)c1cc(Cl)cc(Cl)c1)C2 [MDL 72222, laH,3a,5aH-tropan-3-yl-3,5-dichlorobenzoate]",antagonism of the 5-HT-induced contraction,rabbit bladder strips,strongly and competitively antagonized; also recorded: dose-dependent inhibition; also recorded: effective at blocking
same,pA2,rabbit bladder strips,9.3 ± 0.04
same,"atropine and α,β-methylene ATP-resistant component of 5-HT-induced contraction",rabbit bladder strips,not abolished
same,effect on the contraction to field stimulation,rabbit bladder; 10^-7M,no effect
"CN1[C@@H]2CC[C@H]1C[C@@H](OC(=O)c1c[nH]c3ccccc13)C2 [ICS 205930, 3a-tropanyl-1 H-indole-3-carboxylic acid ester]",antagonism of the 5-HT-induced contraction,rabbit bladder strips,strongly and competitively antagonized; also recorded: effective at blocking
same,antagonism of the 5-HT-induced contraction,rabbit bladder strips; listed as ICS 205-930,most potent antagonistic effect
same,pA2,rabbit bladder strips,12.5 ± 0.36
same,"atropine and α,β-methylene ATP-resistant component of 5-HT-induced contraction",rabbit bladder strips,not abolished
"CN1[C@@H]2CC[C@H]1CC(OC(=O)C(CO)c1ccccc1)C2.CN1[C@@H]2CC[C@H]1CC(OC(=O)C(CO)c1ccccc1)C2.O=S(=O)(O)O (stereo partly drawn) [Atropine, Atropine sulphate]",inhibition of the 5-HT contractions,rabbit bladder strips,partially inhibited
same,inhibition of the response to field stimulation (maximum),"rabbit bladder; 20 minute pretreatment, 10^-8 to 10^-6M, maximum at high frequencies",40%
same,control response to field stimulation still persisting,"rabbit bladder; atropine 10^-8 to 10^-6M, 5-50 Hz, posterior detrusor of male rabbits",approximately 60%
same,effect on the response to field stimulation,rabbit bladder; atropine 10^-8 to 10^-6M,only partially inhibited
"C[N+](C)(C)CCCCCC[N+](C)(C)C [hexamethonium, Hexamethonium bromide]",effect on the 5-HT-induced contraction of the rabbit bladder,rabbit bladder strips,did not affect; also recorded: not blocked
Metitepine monomethanesulfonate,"atropine and α,β-methylene ATP-resistant component of 5-HT-induced contraction",rabbit bladder strips,not abolished
same,effect on the contractile response to 5-HT,rabbit bladder strips,no significant effect
"Nc1ncnc2c1ncn2C1OC(COP(=O)(O)CP(=O)(O)OP(=O)(O)O)C(O)C1O (stereo not drawn) [α,β-methylene ATP, α,β-Methyleneadenosine 5'-Triphosphate]",inhibition of the 5-HT contractions,rabbit bladder strips,partially inhibited
same,inhibition of the response to field stimulation,rabbit bladder; 10^-6M,about 35%
same,effect on the response to field stimulation,rabbit bladder; atropine 10^-8 to 10^-6M,dose-dependent inhibition
"NCCc1c[nH]c2ccc(O)cc12 [5-HT, 5-Hydroxytryptamine creatinine sulphate complex]",contraction in the rabbit bladder,"rabbit bladder strips; 30-second application, 10^-8 to 10^-3M",dose-dependent contraction
same,contraction in the urethra,urethra,dose-dependent contraction
Ketanserine tartrate,"atropine and α,β-methylene ATP-resistant component of 5-HT-induced contraction",rabbit bladder strips,not abolished
same,effect on the contractile response to 5-HT,rabbit bladder strips,no effect
same,effect on the contractile response to 5-HT,rabbit bladder strips; listed as ketanserine,no significant effect
"Cc1ccc(N(CC2=NCCN2)c2cccc(O)c2)cc1 [phentolamine, Phentolamine mesylate]",effect on the 5-HT-induced contraction of the rabbit bladder,rabbit bladder strips,did not affect; also recorded: not blocked
"NC1=N[C@H](O)[C@H]2[C@H]3O[C@]4(O)O[C@@H]([C@@H](O)[C@@]2(N1)[C@@H]4O)[C@]3(O)CO [TTX, Tetrodotoxin]",effect on the 5-HT-induced contraction of the rabbit bladder,rabbit bladder strips,did not affect; also recorded: no effect
same,abolition of the responses to field stimulation,rabbit bladder,complete; also recorded: completely blocks
"COc1cc2nc(N3CCN(C(=O)c4ccco4)CC3)nc(N)c2cc1OC [prazosin, Prazosin hydrochloride]",effect on the 5-HT-induced contraction of the rabbit bladder,rabbit bladder strips; hydrochloride,did not affect; also recorded: not blocked
